Data as given in ChEMBL document CHEMBL1154671, “Isoquinoline-based analogs of the cancer drug clinical candidate tipifarnib as anti-Trypanosoma cruzi agents” (Bioorg Med Chem Lett, 2009).

Test system: Trypanosoma cruzi
Test: Antitrypanosomal activity against Trypanosoma cruzi Tulahuen infected in mouse 3T3 cells
Type: functional, organism-based
Details: NIH3T3

SMILES | EC50 [nM]
COC(c1ccc(Cl)cc1)(c1ccc2cnccc2c1)c1cncn1C (stereo not given) | 120
CC[C@@H]([C@H](C)O)n1ncn(-c2ccc(N3CCN(c4ccc(OC[C@@H]5CO[C@@](Cn6cncn6)(c6ccc(F)cc6F)C5)cc4)CC3)cc2)c1=O [POSACONAZOLE] | 0.3
Cn1cncc1[C@@](N)(c1ccc(Cl)cc1)c1ccc2c(c1)c(-c1cccc(Cl)c1)cc(=O)n2C [TIPIFARNIB] | 4

Continued, values first:

EC50 [nM] | SMILES
0.9 | COC(c1ccc(Cl)cc1)(c1ccc2cncc(-c3c(F)cccc3F)c2c1)c1cncn1C (stereo not given)
0.5 | COC(c1ccc(Cl)cc1)(c1ccc2cncc(-c3cccc(Cl)c3)c2c1)c1cncn1C (stereo not given)
